Structures can show the parent of a compound that is named as a salt.
Molecular target: T1, rat NaPi-2b (Rattus norvegicus, UniProt Q9JJ09)
T1 construct: expressed in transfected cells; host or cells: Xenopus oocytes injected with cRNA
T1 sequence (Q9JJ09 1-695): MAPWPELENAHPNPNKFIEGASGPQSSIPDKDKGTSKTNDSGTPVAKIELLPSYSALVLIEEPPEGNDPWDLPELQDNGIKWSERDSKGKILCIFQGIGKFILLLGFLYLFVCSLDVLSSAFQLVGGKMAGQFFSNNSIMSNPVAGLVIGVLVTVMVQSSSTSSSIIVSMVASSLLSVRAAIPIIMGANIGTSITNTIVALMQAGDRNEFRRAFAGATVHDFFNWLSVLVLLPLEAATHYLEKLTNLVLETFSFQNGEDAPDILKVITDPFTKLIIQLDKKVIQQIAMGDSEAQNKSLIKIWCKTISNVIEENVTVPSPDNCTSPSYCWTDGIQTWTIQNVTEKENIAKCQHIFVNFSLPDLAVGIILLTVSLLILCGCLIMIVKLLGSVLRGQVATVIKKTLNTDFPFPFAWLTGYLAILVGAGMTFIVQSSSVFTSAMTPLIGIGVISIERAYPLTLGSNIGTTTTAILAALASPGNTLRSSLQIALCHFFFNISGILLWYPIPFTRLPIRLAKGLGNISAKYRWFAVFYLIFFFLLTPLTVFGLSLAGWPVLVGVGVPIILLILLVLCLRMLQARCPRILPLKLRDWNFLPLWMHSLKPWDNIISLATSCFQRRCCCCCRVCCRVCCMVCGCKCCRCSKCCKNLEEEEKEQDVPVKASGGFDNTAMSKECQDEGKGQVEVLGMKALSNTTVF
Test: Sodium-dependent phosphate uptake of Xenopus oocytes which expressed NaPi-2b (32P)
Assay type: cell-based
Details: for IC50: Xenopus oocytes expressing rat NaPi-2b, 32P radioactive phosphorus, read-out: IC50 (phosphate uptake inhibitory activity); for inhibition at 300 µM: phosphate uptake, oocytes expressing rat NaPi-2b, determined from inhibition curve
Procedure, shortened: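 Read-out is 32P phosphate uptake into Xenopus oocytes expressing rat intestinal NaPi-2b (cRNA injection, 2-day culture). Inhibition at 300 μM and 100 μM was derived from a single inhibition curve and given as percent.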

Row | IC50 [µM] | inhibition at 300 µM [%] | SMILES
1 | 3.16 |  | CCc1ccc(C(=O)Nc2ccc(Br)cc2C(=O)N/N=C/c2ccc(C)cc2)cc1 [Compound 181, N-[4-Bromo-2-(4-methyl-benzylidene-hydrazinocarbonyl)-phenyl]-4-ethyl-benzamide]
2 | 1.09 |  | COc1ccc(C(=O)Nc2ccc(C)cc2C(=O)N/N=C/c2ccc(C)c(C)c2)cc1OC [Compound 150, N-[2-(3,4-Dimethyl-benzylidene-hydrazinocarbonyl)-4-methyl-phenyl]-3,4-dimethoxy-benzamide]
3 | 5.63 |  | COc1ccc(C(=O)Nc2ccccc2C(=O)N/N=C/c2ccc(C)c(C)c2)cc1 [Compound 94, N-[2-(3,4-Dimethyl-benzylidene-hydrazinocarbonyl)-phenyl]-4-methoxy-benzamide]
4 | 18 |  | COc1cccc(/C=N/NC(=O)c2cc(Br)ccc2NC(=O)c2ccc(CN(CC(C)O)CC(C)O)cc2)c1 (stereo not shown) [Compound 723, 4-{[Bis-(2-hydroxy-propyl)-amino]-methyl}-N-[4-bromo-2-(3-methoxy-benzylidene-hydrazinocarbonyl)-phenyl]-benzamide]
5 | < 1 |  | COc1ccc(/C=N/NC(=O)c2c(C)csc2NC(=O)c2cccc(CN(CC(C)O)CC(C)O)c2)cc1 (stereo not shown) [Compound 852, 3-{[Bis-(2-hydroxy-propyl)-amino]-methyl}-N-[3-(4-methoxy-benzylidene-hydrazinocarbonyl)-4-methyl-thiophen-2-yl]-benzamide; hydrochloride]
6 | 54.1 |  | CN(C)c1ccc(/C=C/C=N/NC(=O)c2ccccc2NC(=O)c2cccnc2)cc1 [Compound 358, N-{2-[3-(4-Dimethylamino-phenyl)-allylidene-hydrazinocarbonyl]-phenyl}-nicotinamide]
7 | 7.15 |  | COc1ccc(C(=O)Nc2ccccc2C(=O)N/N=C/C(C)=C/c2ccccc2)cc1OC [Compound 7, 3,4-Dimethoxy-N-[2-(2-methyl-3-phenyl-allylidene-hydrazinocarbonyl)-phenyl]-benzamide]
8 | 3.59 |  | COc1ccc(C(=O)Nc2ccccc2C(=O)N/N=C/c2ccccc2)cc1OC [Compound 17, N-[2-(Benzylidene-hydrazinocarbonyl)-phenyl]-3,4-dimethoxy-benzamide]
9 | 1.21 |  | O=C(Nc1ccc(N2CCOCC2)cc1C(=O)N/N=C/c1ccc(Cl)c(C(F)(F)F)c1)c1cccc(CSCCO)c1 [Compound 1065, N-[2-(4-Chloro-3-trifluoromethyl-benzylidene-hydrazinocarbonyl)-4-morpholin-4-yl-phenyl]-3-(2-hydroxy-ethylsulfanylmethyl)-benzamide]
10 | < 1 |  | COc1ccc(/C=N/NC(=O)c2cc(N3CCC(C)CC3)ccc2NC(=O)c2cccc(CSCCO)c2)cc1 [Compound 1071, 3-(2-Hydroxy-ethylsulfanylmethyl)-N-[2-(4-methoxy-benzylidene-hydrazinocarbonyl)-4-(4-methyl-piperidin-1-yl)-phenyl]-benzamide]
11 | 2.13 |  | O=C(Nc1ccc(OCCN2CCCCC2)cc1C(=O)N/N=C/c1ccc(Cl)c(C(F)(F)F)c1)c1cccc(CSCCO)c1 [Compound 1044, N-[2-(4-Chloro-3-trifluoromethyl-benzylidene-hydrazinocarbonyl)-4-(2-piperidin-1-yl-ethoxy)-phenyl]-3-(2-hydroxy-ethylsulfanylmethyl)-benzamide]
12 | 1 |  | CCN(CC)CCN(C)Cc1cccc(C(=O)Nc2ccc(Cl)cc2C(=O)N/N=C/c2cccc(C)c2)c1 [Compound 381, N-[4-Chloro-2-(3-methyl-benzylidene-hydrazinocarbonyl)-phenyl]-3-{[(2-diethylamino-ethyl)-methyl-amino]-methyl}-benzamide]
13 | 3.72 |  | CCN(CC)CCSCc1cccc(C(=O)Nc2ccc(N3CCCCC3)cc2C(=O)NN=Cc2ccc(OC)cc2)c1 [Compound 879, 3-(2-Diethylamino-ethylsulfanylmethyl)-N-[2-(4-methoxy-benzylidene-hydrazinocarbonyl)-4-piperidin-1-yl-phenyl]-benzamide]
14 |  | 31.2 | CCN(CC)CCN(C)Cc1cccc(C(=O)Nc2ccc(N3CCCN(C)CC3)cc2C(=O)N/N=C/c2ccc(OC)cc2)c1 [Compound 931, 3-{[(2-Diethylamino-ethyl)-methyl-amino]-methyl}-N-[2-(4-methoxy-benzylidene-hydrazinocarbonyl)-4-(4-methyl-[1,4]diazepan-1-yl)-phenyl]-benzamide]
15 | < 3 |  | CCN(CC)CCN(C)Cc1cccc(C(=O)Nc2ccc(I)cc2C(=O)N/N=C/c2ccc(OC)cc2)c1 [Compound 479, 3-{[(2-Diethylamino-ethyl)-methyl-amino]-methyl}-N-[4-iodo-2-(4-methoxy-benzylidene-hydrazinocarbonyl)-phenyl]-benzamide]
16 | 7.36 |  | O=C(Nc1ccc(Cl)cc1C(=O)N/N=C/c1ccc(Cl)c(C(F)(F)F)c1)c1ccncc1 [Compound 194, N-[4-Chloro-2-(4-chloro-3-trifluoromethyl-benzylidene-hydrazinocarbonyl)-phenyl]-isonicotinamide]
17 | < 3 |  | O=C(Nc1ccc(Br)cc1C(=O)N/N=C/c1ccc(Cl)c(C(F)(F)F)c1)c1cccc(C[S+]([O-])CCO)c1 (stereo not shown) [Compound 679, N-[4-Bromo-2-(4-chloro-3-trifluoromethyl-benzylidene-hydrazinocarbonyl)-phenyl]-3-(2-hydroxy-ethanesulfinylmethyl)-benzamide]
18 | 19.5 |  | COc1ccc(C(=O)Nc2ccccc2C(=O)N/N=C/c2cccc(O)c2)cc1 [Compound 50, N-[2-(3-Hydroxy-benzylidene-hydrazinocarbonyl)-phenyl]-4-methoxy-benzamide]
19 | < 3 |  | Cc1csc(NC(=O)c2cccc(CN3CCN(CCO)CC3)c2)c1C(=O)N/N=C/c1ccc(Cl)c(C(F)(F)F)c1 [Compound 579, N-[3-(4-Chloro-3-trifluoromethyl-benzylidene-hydrazinocarbonyl)-4-methyl-thiophen-2-yl]-3-[4-(2-hydroxy-ethyl)-piperazin-1-ylmethyl]-benzamide]
20 | 4.52 |  | COc1ccc(/C=N/NC(=O)c2c(C)csc2NC(=O)c2cccc(CN(C)C)c2)cc1 [Compound 825, 3-Dimethylaminomethyl-N-[3-(4-methoxy-benzylidene-hydrazinocarbonyl)-4-methyl-thiophen-2-yl]-benzamide]
21 | 4.35 |  | Cc1cccc(/C=N/NC(=O)c2cc(Br)ccc2NC(=O)c2cccs2)c1 [Compound 159, Thiophene-2-carboxylic acid [4-bromo-2-(3-methyl-benzylidene-hydrazinocarbonyl)-phenyl]-amide]
22 | 5.95 |  | O=C(Nc1sc2c(c1C(=O)N/N=C/c1cccc(F)c1)CCC2)c1cccc(CN2CCC(CO)CC2)c1 [Compound 819, N-[3-(3-Fluoro-benzylidene-hydrazinocarbonyl)-5,6-dihydro-4H-cyclopenta[b]thiophen-2-yl]-3-(4-hydroxymethyl-piperidin-1-ylmethyl)-benzamide]
23 | 1.36 |  | Cc1csc(NC(=O)c2cccc(CN(CC(C)O)CC(C)O)c2)c1C(=O)N/N=C/c1ccc(Cl)c(C(F)(F)F)c1 (stereo not shown) [Compound 851, 3-{[Bis-(2-hydroxy-propyl)-amino]-methyl}-N-[3-(4-chloro-3-trifluoromethyl-benzylidene-hydrazinocarbonyl)-4-methyl-thiophen-2-yl]-benzamide; hydrochloride]
24 | 1.26 |  | Cc1ccc(/C=N/NC(=O)c2c(NC(=O)c3cccc(CN(CC(C)O)CC(C)O)c3)sc3ccccc23)cc1C (stereo not shown) [Compound 792, 3-{[Bis-(2-hydroxy-propyl)-amino]-methyl}-N-[3-(3,4-dimethyl-benzylidene-hydrazinocarbonyl)-benzo[b]thiophen-2-yl]-benzamide]
25 | 4.44 |  | Cc1ccc(/C=N/NC(=O)c2c(C)csc2NC(=O)c2cccc(CN3CCN(c4ncccn4)CC3)c2)cc1C [Compound 826, N-[3-(3,4-Dimethyl-benzylidene-hydrazinocarbonyl)-4-methyl-thiophen-2-yl]-3-(4-pyrimidin-2-yl-piperazin-1-ylmethyl)-benzamide]
26 | 6.2 |  | O=C(Nc1ccc(Br)cc1C(=O)N/N=C/c1ccc(F)cc1)c1ccc(CSCCCO)cc1 [Compound 276, N-[4-Bromo-2-(4-fluoro-benzylidene-hydrazinocarbonyl)-phenyl]-4-(3-hydroxy-propylsulfanylmethyl)-benzamide]
27 |  | 88.8 | Cc1ccc(CNNC(=O)c2ccccc2NC(=O)c2ccncc2)cc1 [Compound 545, N-{2-[N′-(4-Methyl-benzyl)-hydrazinocarbonyl]-phenyl}-isonicotinamide]
28 | < 3 |  | O=C(Nc1ccc(I)cc1C(=O)N/N=C/c1cccc(O)c1)c1cccc(CN2CCC(N3CCCCC3)CC2)c1 [Compound 490, 3-[1,4′]Bipiperidinyl-1′-ylmethyl-N-[2-(3-hydroxy-benzylidene-hydrazinocarbonyl)-4-iodo-phenyl]-benzamide]
